Results on one compound are retold here after patent publication US8546593B2, “Methods and compositions for novel liquid crystal delivery systems” (Copperhead Chemical Company, Inc., priority 2009, dated 2013).

The assay concerns Staphylococcus aureus. Nature of the assay: Minimum inhibitory concentration against Staphylococcus aureus. The class given is cell-based. The conditions noted are these: read-out: minimum inhibitory concentration (MIC).

Molecules are shown by their SMILES. ≈ marks a conversion by molar mass, not a printed value.

As to `CCCCCCCCCCCC(=O)OCC(O)CO` (stereo not shown) [glycerol monolaurate], the MIC came out at 55 mg/L (≈ 200 µM).
